Measurements taken from patent US6207411A, “Bacteriocins” (priority 1995, dated 2001).

Columns and labels:
NCDO496 = assay: MIC of pure nisin; assay type: cell-based, Lactococcus lactis; conditions: pure nisin against strain NCDO496
Source text: (§1) As expected, catalase had no effect on the antimicrobial activity of the 3147 bacteriocin thus eliminating the possibility that the antimicrobial activity may be due to hydrogen peroxide. In addition, none of the strains producing lacticin 3147 were capable of fermenting sucrose. This provides additional evidence that this bacteriocin is not nisin, since the genes encoding nisin (nis A) is linked to genes responsible for sucrose catabolism on the nisin-sucrosetransposon. Tn5276 (Horn et. al., 1991). Thus, all those Nip^+ (nisin-producing) strains studied to date are in addition Suc^+ (Sucrose-fermenting).

DPC3147 = assay: MIC of pure nisin; assay type: cell-based, Lactococcus lactis; conditions: pure nisin against strain DPC3147
Source text: as §1

[1] = tested on: Streptococcus dysgalactiae M; assay: Frequency of resistance development of a mastitic strain; assay type: cell-based; conditions: prolonged exposure
Source text: As a result of the growing concern over the use of antibiotics for the treatment and prevention of disease in animals the potential of using lacticin 3147 in the prevention of bovine mastitis was investigated. To achieve this the bacteriocin was incorporated into teat seals preparations. These seals are manufactured by Cross Vetpharm (Broomhill Road, Tallaght, Dublin 24. Ireland) and act as a physical barrier in the cow against infection. The bacteriocin provides an additional anti-microbial barrier over the physical one provided by the seal itself. Incorporation of the bacteriocin into the teat seals first required the preparation of the bacteriocin in a highly concentrated and semi-purified form. The anti-microbial effectiveness of lacticin 3147 in the environment of the seal required the addition of either Tween 20 or 80 in concentrations of 2% (FIG. 14A). […] Having successfully prepared effective bacteriocin-containing teat seals a number of animal trials were then performed. These involved exposure of the modified seals to the animal for different time periods after which the seals were removed. […] Other aspects of this study focused on the frequency at which a mastitic strain can develop resistance to lacticin 3147 since this could limit its practical usefulness as an effective antimicrobial under certain conditions. […]

[2] = tested on: L. lactis subsp. lactis MG1614; assay: Spontaneous resistance on media containing lacticin 3147; assay type: cell-based, Lactococcus lactis; conditions: MG1614 plated up to 10^8 -10^9 CFU/ml
Description: Plates containing bacteriocin were prepared as follows. A cell-free, sterile bacteriocin solution was obtained from an overnight culture of L. lactis DPC3147 grown in GM17 by first centrifuging at 8000 g (Sorvall RC-5B) for 10 min. The resulting supernatant was then sterilized by filtering with Millipore HVLP filters (0.45 um) and tempered to 45° C. An equal volume was then added to double strength GM17 and the plates were poured. Where needed, streptomycin was added to agar at a concentration of 500 μg/ml.
During initial genetic work with lacticin 3147, it was observed that the bacteriocin-producing property was an easily lost trait. Preliminary experiments were attempted to establish if bacteriocin production by DPC3147 was encoded on a conjugally transmissable piece of DNA. These conjugal matings involved using DPC3147 as the donor strain and the plasmid-free strain, L. lactis subsp. lactis MG1614, which is streptomycin resistant as the recipient. The selection of transconjugants from such matings was achieved using the plasmid-encoded bacteriocin immunity/resistance determinants as a selectable marker. This involved the incorporation of lacticin 3147 into the selective media. […] The incorporation of lacticin 3147 into selective media may thus form the basis for a novel food-grade marker system for use in genetic manipulation of lactococci. […]

[3] = tested on: four cariogenic streptococci; assay: Sensitivity of oral streptococci; assay type: cell-based; conditions: four cariogenic strains from infected patients
Description: Four cariogenic streptococcal strains isolated from infected patients were grown overnight at 30° C. in Brain Heart Infusion broth. These strains were obtained from Dr. Ger Fitzgerald, University College Cork. The relative sensitivity of each of these strains to the bacteriocin was then determined in comparison to L. lactis HP.

[4] = Bacteriocin activity in teat seals; conditions: teat seal without Tween 20 or 80 (2% required)
Description: FIG. 14A. Antimicrobial effectiveness of lacticin 3147 requires the presence of Tween Au/ml) has been added.
TY (Tryptone 2.5 g/L, Yeast Extract 5 g/L, Glucose 10 g/L, b-glycerophosphate 19 g/L, MgSO4.7H2O 0.25 g/L, MnSO4.4H2O 0.05 g/L, pH 6.75) broth was prefiltered (15 filter/liter) with HA (Millipore) filters to remove proteins in the media which would bind to the filters. L. lactis DPC 3147 was then grown overnight in the filtered TY-broth. The culture was centrifuged at 10,000 rpm for 15 minutes and then filtered through HVLP filters (Millipore). The bacteriocin was then bound to HA filters (8 filters/liter) and subsequently harvested from the filters using acetone/5 mM Phosphate-Buffer, pH 7.0 (2:1). The mix was subsequently centrifuged and the acetone removed by evaporation. The resultant bacteriocin preparation was freeze-dried and dissolved in sterile distilled water. This was then assayed as above. To add bacteriocin into the teat seal 17,000 units of the bacteriocin prepared as above was added to the seal in a sterile petri disc. On mixing, the bacteriocin and seal formed as emulsion which was then aseptically transferred to a syringe (Cross Vetpharm).

Catalase = assay: Protease sensitivity assay (catalase); conditions: enzyme 50 mg/ml
Description: (§2) The following enzymes were dissolved in sterile distilled H2 O (SDW) to a final concentration of 50 mg/ml: Trypsin (type II, Sigma Chemical Co., Poole, Dorset, England), alpha-chymotrypsin (type II, Sigma), Proteinase K (Sigma), Pronase E (type XIV, Sigma), Catalase (Sigma). Pepsin was dissolved in 0.02N HCl, also to a final concentration of 50 mg/ml. All enzyme solutions were filter sterilised using disposable filters (Rotrand/Red rim 0.2 μm, Schleicher & Schuell). 20 μl aliquots of filtered cell-free bacteriocin solution and 20 μl of each enzyme solution were spotted 1 cm apart on GM17 agar plates and dried for 30 min. All plates were incubated overnight at 30° C. The plates move subsequently overlaid with the indicator organism. […] was evident as a zone of inhibition. Controls included plates with spots of either bacteriocin solution or enzyme solution.

Pepsin = assay: Protease sensitivity assay; conditions: enzyme 50 mg/ml in 0.02N HCl
Description: as §2

Proteinase K = molecular target: T1, Proteinase K (Parengyodontium album, UniProt P06873); assay: Protease sensitivity assay; conditions: enzyme 50 mg/ml spotted beside bacteriocin; indicator L. lactis HP
T1 construct: purchased Sigma
Description: (§3) FIGS. 2A, 2B, 2C, 2D, and 2E. Protease Sensitivity Assay. Filtered cell-free bacteriocin solution and enzyme solution (A represents control, no enzyme; B, alpha-chymotrypsin; C, trypsin; D, pronase E and E represents proteinase K) were spotted 1 cm apart on GM17 agar plates and subsequently overlaid with the indicator L. lactis strain HP.
as §2

Pronase E = assay: Protease sensitivity assay; conditions: enzyme 50 mg/ml spotted beside bacteriocin; indicator L. lactis HP
Description: as §3, §2

Trypsin = molecular target: T2, Trypsin (Sus scrofa, UniProt P00761); assay: Protease sensitivity assay; conditions: enzyme 50 mg/ml spotted beside bacteriocin; indicator L. lactis HP
T2 construct: purchased Sigma Chemical Co., Poole, Dorset, England type II
Description: as §3, §2

alpha-chymotrypsin = molecular target: T3, alpha-chymotrypsin (Bos taurus, UniProt P00766, DEL14-15/DEL147-148); assay: Protease sensitivity assay; conditions: enzyme 50 mg/ml spotted beside bacteriocin; indicator L. lactis HP
T3 construct: purchased Sigma type II
Description: as §3, §2

[5] = tested on: Streptococcus dysgalactiae M; assay: Effectiveness on Streptococcus dysgalactiae M (plate counts); assay type: cell-based; conditions: 10.240 AU/ml, stationary phase cells, 2 hours, 37° C.
Description: FIG. 14B. Effect of adding lacticin 3147 (10.240 AU/ml) to stationary cells of Streptococcus dysgalactiae.
10 μl from a overnight culture was added to 490 μl of sterile 50 mM phosphate-buffer. pH 7.0 500 μl lacticin 3147 (10,000 AU/ml) was then added and plate counts were carried out after 0, 15, 30, 60, 90 and 120 minutes at 37° C. to assess cell viability.

L. lactis AM2 = assay: Bacteriocin assayed directly in cheese samples; design: species or system Lactococcus lactis
Description: Bacteriocin activity was assayed from cheese samples as follows. Cheese samples were initially macerated in equal volumes of distilled water in a stomacher (Lab-Blender 400) for 15 min and heated to 80° C. for 10 min. Then aliquots of 50 μl were dispensed in wells and bacteriocin activity calculated as the difference in area of the zone of inhibition (in mm2) and the area of the well (as outlined previously).
Since then we have assayed the bacteriocin in these cheeses. In Cheese trial 1 the presence of lacticin 3147 in take test cheese was confirmed (using L. lactis AM2 as the indicator strain) at a level of approximately 1.280 AU/ml which remained constant in the cheese over the 28-week ripening period (FIG. 13A). In contrast, no anti-microbial activity was detected in the control cheese. Similarly, the amount of bacteriocin detected in cheese trial 2 was approximately 1.280 AU/ml which also remained constant over the ripening period (FIG. 13B). Thus the level of bacteriocin observed in the cheese corresponds to the number of NSLABs which occur in the cheese during ripening.

[6] = assay type: physicochemical; conditions: pH 9, up to 100° C., 10 minutes; 100% = unheated at that pH
Description: FIG. 6. Effect of heating at 60° C. to 121° C. for 10 minutes on the stability of lacticin 3147 at pH5, pH7, pH9. 100% activity is the activity at pH 5, 7 and 9 with no heating.
A cell-free bacteriocin was exposed to various pH/temperature treatments. Samples were heated to 60, 70, 80, 90, 100, 110 and 121° C. at pH5, pH7 and pH9 for 10 min. Following treatment, all solutions were rapidly cooled and bacteriocin activity was assayed by the well diffusion method.
Three samples of bacteriocin were brought to a pH of 5, 7 and 9 and aliquots of each were subsequently heated to 60° C., 70° C., 80° C., 90° C., 100° C., 110° C. and 121° C. for 10 minutes. The activity at each pH prior to heat treatment was measured and was taken to be 100% for that pH value. From the graphical representation in FIG. 6, it can be seen that lacticin 3147 is heat-stable, particularly at an acid pH.

T2 sequence (P00761 9-231): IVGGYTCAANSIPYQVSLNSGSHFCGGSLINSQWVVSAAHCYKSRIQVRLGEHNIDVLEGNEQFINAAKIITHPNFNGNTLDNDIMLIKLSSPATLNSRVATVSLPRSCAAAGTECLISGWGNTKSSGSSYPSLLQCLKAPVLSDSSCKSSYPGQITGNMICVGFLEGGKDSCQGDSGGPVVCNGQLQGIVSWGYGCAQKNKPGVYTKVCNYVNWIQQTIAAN
T1 sequence (P06873 106-384): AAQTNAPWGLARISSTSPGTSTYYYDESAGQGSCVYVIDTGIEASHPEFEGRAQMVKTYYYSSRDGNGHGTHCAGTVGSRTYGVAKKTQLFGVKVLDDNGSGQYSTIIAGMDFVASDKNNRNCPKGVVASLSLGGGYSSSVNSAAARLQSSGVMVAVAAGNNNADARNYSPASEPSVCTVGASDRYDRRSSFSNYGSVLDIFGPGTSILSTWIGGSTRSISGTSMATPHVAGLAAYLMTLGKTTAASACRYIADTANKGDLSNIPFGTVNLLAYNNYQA

Substance | minimum concentrations (MIC) required for inhibition (NCDO496) | minimum concentrations (MIC) required for inhibition (DPC3147) | Bacterial cells that developed increased tolerance [1] | Growth of sensitive cells on media containing lacticin 3147 [2] | Sensitivity relative to L. lactis HP [3] | Bacteriocin activity in treated seals [4] | Effect of catalase on antimicrobial activity (Catalase) | Sensitivity to pepsin (Pepsin) | Sensitivity to proteinase K (Proteinase K) | Sensitivity to pronase E (Pronase E) | Sensitivity to trypsin (Trypsin) | Sensitivity to alpha-chymotrypsin (alpha-chymotrypsin) | Kill [5] | Level of bacteriocin in cheese (L. lactis AM2; cheese trial 1, constant over the 28-week ripening period) | Level of bacteriocin in cheese (L. lactis AM2; cheese trial 2, constant over the ripening period) | Activity maintained after heating [6]
nisin | 400 µg/mL | 100 µg/mL |  |  |  |  |  |  |  |  |  |  |  |  |  | 
lacticin 3147 |  |  | 0.003% | failed to grow | 12.5% | negligible bacteriocin activity | no effect | not to pepsin | sensitive | sensitive | sensitive | sensitive | 99.99% | approximately 1.280 AU/ml | approximately 1.280 AU/ml | more than 50%
